Data on two compounds can be found in patent US7851599B2 (Philogen S.p.A., priority 2006, dated 2010).

The test system of experiment [1] is human pancreatic cancer cell line DanG. The experiment can be described thus: Orthotopic DanG pancreatic cancer xenograft, tumor volume. In kind it is in vivo, nude mice.
Experiment [2] concerns the target ED-B domain of fibronectin (Homo sapiens, UniProt P02751). As to conditions: cited from earlier work.

ED-B domain of fibronectin, sequence (P02751 1271-1359 limits assumed): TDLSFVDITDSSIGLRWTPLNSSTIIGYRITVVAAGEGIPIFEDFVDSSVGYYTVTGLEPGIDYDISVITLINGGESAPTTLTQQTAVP

Turning to `Nc1ccn([C@@H]2O[C@H](CO)[C@@H](O)C2(F)F)c(=O)n1` [gemcitabine, 2′-deoxy-2′,2′-difluorocytidine], the “mice with complete remission” value in experiment [1] (gemcitabine 250 mg/kg BW days 7, 14, L19IL2 4.29 MIU/kg BW days 8-12, 15-19, or both) is “no complete remission”. The “pancreatic tumor volume, % compared to control mice” value in experiment [1] (gemcitabine i.p. 250 mg/kg BW once weekly (day 7 and 14), day 21) turned out to be 28%.

On to “scFv L19: human homodimeric single chain Fv antibody fragment L19 specific for the ED-B domain of fibronectin”, for which the “binding affinity for ED-B” value in experiment [2] was “picomolar”.
